Patent US20210121456A1, “USE OF METHYLNALTREXONE TO ATTENUATE TUMOR PROGRESSION” (Salix Pharmaceuticals, Inc., priority 2014, published 2021)

What was measured:
[1] = Plasma levels after oral administration; type: in vivo
Method: Methylnaltrexone is rapidly absorbed after oral administration from the stomach and bowel. Initial plasma levels of the drug are seen within 5-10 minutes of the administration of non-enteric coated compound.

[2] = tested on: subjects with advanced medical illness and opioid-induced constipation; assay: Study 1: double-blind, randomized, placebo-controlled study of subcutaneous methylnaltrexone; type: in vivo, human
Method: A double-blind, randomized, placebo-controlled study of subcutaneous methylnaltrexone (MNTX) was conducted in subjects with advanced medical illness and a current history of opioid-induced constipation. To satisfy eligibility criteria for enrollment, subjects were required to be on stable doses of laxatives and opioid analgesics. In the context of the study, a stable dose of opioid analgesics was defined as no reduction in the dose of opioid analgesic of ≥50% for at least three days before the first dose of MNTX. A stable dose of laxatives was defined as having a standing laxative order (and not PRN, or as-needed) for at least three days before the first dose of MNTX. A diagnosis of constipation was provided if the subject had fewer than 3 bowel movements during the previous week by history and no clinically notable laxation in the 24 hours before the first dose of MNTX, or no clinical notable laxation in the 48 hours before the first dose of MNTX.
Eligible subjects were randomized to one of two treatment groups: MNTX 0.15 mg/kg (e.g., 8 mg for patients <62 kg body weight and 12 mg for patients ≥62 kg body weight) or placebo. Each treatment was administered every other day (QOD) subcutaneously for two weeks. Injections were administered subcutaneously in either the shoulder area, buttocks, abdomen, thighs or extremities. Rescue-laxatives, enemas or manual disimpactions were not administered within 4 hours before or after each dose of MNTX. Endpoints included: (1) the proportion of subjects with rescue-free laxation within 4 hours of the first dose of study drug, and (2) the proportion of subjects with ≥2 rescue-free laxations within 4 hours post dosing over 4 doses of study drug (the first week of the two-week treatment period). One hundred and thirty-four (134) subjects were enrolled and evaluated, including 78 patients with advanced cancers and 56 patients with other advanced illness, including COPD, cardiovascular disease and severe neurologic disease. Seventy-one (71) of the 134 subjects were randomized to the placebo group, and sixty-two (62) of the 134 subjects were randomized to MNTX treatment group. The co-primary efficacy endpoints of this study were: 1) the proportion of patients with laxation within 4 hours after the first dose of study drug, and 2) the proportion of patients with laxation within 4 hours after 2 of the first 4 doses (the first week of double-blind treatment). The primary endpoint was laxation within 4 hours. Secondary endpoints included the use of rescue medication and frequency of symptoms within 24 hours. […]

[3] = tested on: cancer subjects with opioid-induced constipation (tumor disease progression); assay: Pooled analysis of Study 1 and Study 2: adverse events of disease progression; type: in vivo, human
Excerpt: As part of the routine adverse event (AE) evaluations filled out by all investigators in the studies described in Examples 1 and 2, AEs of tumor progression were tabulated. Both studies were randomized, placebo-controlled trials that involved a 2-week treatment period followed by a 2-week follow-up period. The enrolled subjects were advanced illness (incurable cancer or other end-stage disease) subjects with OIC who were receiving stable doses of laxatives and opioid analgesics. In the context of the study, a stable dose of opioid analgesics was defined as no reduction in the dose of opioid analgesic of ≥50% for at least three days before the first dose of MNTX. A stable dose of laxatives was defined as having a standing laxative order (and not PRN, or as-needed) for at least three days before the first dose of MNTX. A diagnosis of constipation was provided if the subject had (a) fewer than 3 bowel movements during the previous week by history and no clinically notable laxation in the 24 hours before the first dose of MNTX, or (b) no clinical notable laxation in the 48 hours before the first dose of MNTX. In Study 1 (Example 1), subjects received subcutaneous MNTX 0.15 mg/kg or placebo (PBO) every other day (QOD), and in Study 2 (Example 2) subjects received subcutaneous MNTX (8 mg or 12 mg based on body weight 38 to <62 kg or ≥62 kg, respectively) or placebo administered QOD. The 12 mg fixed dose was designed to correspond to the 0.15 mg/kg weight-based dose. Rescue-laxatives, enemas or manual disimpactions were not administered within 4 hours before or after each dose of MNTX. For the purpose of this analysis, only subjects with a cancer-related diagnosis were considered. For statistical significance testing, the Fisher's exact test was used (p<0.05).
Table 1 and FIG. 1 provide AEs of disease progression in the pooled analysis and for each individual study during the double-blind phase of the studies.
Furthermore, when the pool of MNTX-treated subjects across both studies was examined, there was a significant decrease in the percentage of subjects with disease progression between subjects who responded to MNTX treatment and those who were considered non-responders. A subject with laxation within 4 hours after two of the first four doses of MNTX was considered a responder.
For the analysis carried out in this Example and in Example 3, a subject with laxation occurring from 0-4 hours after two of the first four doses of MNTX was considered a MNTX responder or responsive subject. Data for placebo patients who elected to participate in the open-label MNTX treatment phase was collected from the first 4 doses of open-label treatment. Data for the MNTX-treated patients was collected from the first 4 doses of the double-blind phase of the study.

Lewis lung cancer model = conditions: infusion of MNTX; cited from earlier work
[4] = MNTX 0.15 mg/kg SC QOD, double-blind
[5] = regardless of the time after dose

## C[N@+]1(CC2CC2)CC[C@]23c4c5ccc(O)c4O[C@H]2C(=O)CC[C@@]3(O)[C@H]1C5.[Br-] [MNTX, (R)—N-(cyclopropylmethyl) noroxymorphone methobromide]
[1]; enteric coated, oral
  plasma levels with an enteric coating which prevents gastric absorption: lower plasma levels
[1]; non-enteric coated compound
  time to initial plasma levels after oral administration: 5 to 10 min
[2]; Day 1
  subjects with improvement in constipation distress: 53%
[2]; Day 7
  subjects for whom the bowel status was improved (second global rating, 'Likewise'): 69.4%
  subjects who rated their bowel status improved (global rating scale): 73.5%
  subjects with improvement in constipation distress: 64%
[2]; Day 14
  subjects for whom the bowel status was improved (second global rating, 'Likewise'): 67.9%
  subjects who rated their bowel status improved (global rating scale): 67.9%
  subjects with improvement in constipation distress: 60%
[2]; MNTX 0.15 mg/kg SC QOD
  subjects with rescue-free laxation within 4 hours after at least 2 of the first 4 doses: 51.6%
  subjects with rescue-free laxation within 4 hours after at least 2 of the first 4 doses (number): Thirty-two
  subjects with rescue-free laxation within 4 hours after at least 4 of the maximum 7 doses: 38.7%
  subjects with rescue-free laxation within 4 hours after at least 4 of the maximum 7 doses (number): twenty-four
[2]; [4]
  subjects with rescue-free laxation within 4 hours after the first dose: 48.4%
  subjects with rescue-free laxation within 4 hours after the first dose (number): 30 subjects
[2]; based on the subjects who had laxation
  median time to rescue-free laxation after the first dose: 1.0 h
[2]; during double-blind treatment (baseline 12.7%)
  subjects using enemas: 23.8%
[2]; during the study (baseline 30.2%)
  subjects using osmotic agents: 33.3%
[2]; first week of treatment
  subjects with at least one rescue-free laxation: 95.2%
[2]; in vivo
  rescue-free laxations within 4 hours after any dose rated as moderate, considerable, or great difficulty: 33.0%
[2]; range over doses
  subjects with rescue-free laxations within 4 hours after any individual dose: 37.3-48.4%
  subjects with rescue-free laxations within 24 hours after any individual dose: 55.4-66.0%
[2]; [5]
  subjects with at least three rescue-free laxations per week: 67.7%
  subjects with at least three rescue-free laxations per week (number): 42 subjects
[2]; rescue-free laxations within 4 hours after any dose
  watery bowel movements: 15.9%
[2]; second week of treatment
  subjects with at least one rescue-free laxation: 91.2%
[3]; Combined (Study 1 & Study 2), double-blind phase, cancer subjects
  Adverse Events of Disease Progression, n/N: 16/116
[3]; MNTX Non-Responders
  % Progression: 22.0%
  Disease Progression (number of subjects): 11
  No Disease Progression (number of subjects): 39
[3]; MNTX Responders
  % Progression: 7.6%
  No Disease Progression (number of subjects): 61
[3]; MNTX Responders (laxation within 4 hours after two of the first four doses)
  Disease Progression (number of subjects): 5
[3]; MNTX Total
  No Disease Progression (number of subjects): 100
[3]; MNTX Total, pooled
  Disease Progression (number of subjects): 16
[3]; Study 1, double-blind phase
  Adverse Events of Disease Progression, %: (16.2%)
  Adverse Events of Disease Progression, n/N: 6/37
[3]; Study 2, double-blind phase
  Adverse Events of Disease Progression, %: (12.7%)
  Adverse Events of Disease Progression, n/N: 10/79
[3]; pooled analysis
  reduction in the incidence of AE of disease progression versus placebo: ~46%
Lewis lung cancer model
  tumor growth and metastasis: dramatically reduced growth and metastasis
